Measured values from patent publication US9526786B2, “Thermostabilization of proteins” (The Trustee of Columbia University in the City of New York, priority 2007, dated 2016).
Positions count from the first letter of the chain named. “Also recorded” adds a separate entry of the source.

Tests used:
CocE [1] = molecular target: T1, CocE (Rhodococcus sp., UniProt Q9L9D7); format: biochemical, Rhodococcus sp. MB 1
T1 construct: 6xHis (C); made in house; host or cells: E. coli BL-21 Gold (DE3), pET-22b(+)
T1 sequence (Q9L9D7 1-574): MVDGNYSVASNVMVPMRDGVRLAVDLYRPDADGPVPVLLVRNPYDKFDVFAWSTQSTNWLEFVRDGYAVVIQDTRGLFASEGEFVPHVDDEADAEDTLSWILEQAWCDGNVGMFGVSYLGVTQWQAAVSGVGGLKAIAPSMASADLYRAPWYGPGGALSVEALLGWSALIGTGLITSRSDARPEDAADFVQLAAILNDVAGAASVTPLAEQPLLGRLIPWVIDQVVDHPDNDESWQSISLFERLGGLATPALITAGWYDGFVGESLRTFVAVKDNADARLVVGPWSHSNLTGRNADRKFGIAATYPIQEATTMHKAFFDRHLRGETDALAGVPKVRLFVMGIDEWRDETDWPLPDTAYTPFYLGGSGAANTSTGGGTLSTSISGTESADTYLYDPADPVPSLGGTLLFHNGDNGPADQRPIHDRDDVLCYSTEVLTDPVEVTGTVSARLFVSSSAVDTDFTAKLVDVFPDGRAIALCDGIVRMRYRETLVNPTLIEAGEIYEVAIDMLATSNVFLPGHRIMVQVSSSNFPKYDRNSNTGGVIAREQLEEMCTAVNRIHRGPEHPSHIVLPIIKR
Method: Analysis of CocE action on cocaine cleavage is performed by utilizing the spectroscopic properties of cocaine, which maximally absorbs light at a 240 nm wavelength. CocE activity is measured by monitoring for a decrease in signal at A240, using various concentrations of cocaine, and determining the initial rate of the decrease. From these values the Vmax of the enzyme can be determined. By pre-incubating the enzyme at 37° C. for various times before monitoring for activity, the half life of CocE at 37° C. can be calculated.
The initial rates (of decay) were determined by following the change in the intrinsic absorbance of cocaine at 240 nm (6700 M^1 cm^1)(Xie et al., 1999) using a SpectraMax Plus 384 UV plate reader (Molecular Devices, Sunnyvale, Calif.) using SOFTmax Pro software (Version 3.1.2). The reaction was initiated by adding 100 μL of a 2× enzyme solution (100 mM phosphate buffer, pH 7.4 and 300 mM NaCl) to 100 μL of a 2× cocaine solution (50 μg/mL enzyme, 100 mM Phosphate Buffer, pH 7.4 and 300 mM NaCl). All assays were performed with 100 μM DTT unless indicated otherwise. Final cocaine concentrations were as follows: 125, 62.5, 31.25, 15.63, 7.81, 3.91, 1.95, and 0.977 μM. Vmax and Km values were calculated using Prism (GraphPad Software, San Diego). For stability measurements, wild type and mutant enzymes were diluted to 2× concentration and incubated at 37° C. for the times indicated. At the end of each time point, an aliquot was removed and kinetic behavior was observed as outlined above.
(§1) In vitro kinetic assays. […] Initial rates were then used to determine Michaelis-Menten parameters. To assess thermal stability, enzyme preparations were preincubated at 37° C. for various lengths of time, prior to measurement of residual activities (Table 1 and FIG. 23).

CocE [2] = molecular target: T1, CocE; test: Effect of DTT on decay of CocE activity at 37° C.; format: biochemical, Rhodococcus sp. MB 1; settings: DTT 10 mM
Method: as §1

WT CocE = molecular target: T2, WT CocE (Rhodococcus sp., UniProt Q9L9D7)
T2 sequence (Q9L9D7 1-574): T1 sequence (Q9L9D7 1-574)
Method: Further characterization of the stability of wild type (WT) CocE and thermostable mutants was performed through circular dichroism, which detects small changes in protein conformation and structure. Analysis by repeated CD measurements at increasing temperatures allows analysis of the thermodynamics and melting temperature (TM) of the protein, so long as the melting is reversible (i.e. the protein resumes it's original conformation upon cooling). […] However CD is still of value in determining the temperature to unfolding.

CocE mutant L169K = molecular target: T3, CocE mutant L169K (Rhodococcus sp., UniProt Q9L9D7, L169K); test: Circular dichroism melting of L169K in the presence of phenylboronic acid; format: physicochemical, Rhodococcus sp. MB 1
T3 construct: 6xHis (C); made in house; host or cells: E. coli BL-21 Gold (DE3), pET-22b(+)
T3 sequence (Q9L9D7 1-574 L169K): T1 sequence (Q9L9D7 1-574) with L169K
Method: CD analysis of another CocE mutant, L169K, established a ˜65° C. melting temperature alone, and ˜85° C. melting temperature in the presence of phenylboronic acid (FIG. 18), i.e. phenylboronic acid conferred an additional 20° C. melting to the already high original melting temperature for L169K.

CocE WT = molecular target: T4, CocE WT (Rhodococcus sp., UniProt Q9L9D7); test: Inhibition of CocE WT aggregate formation, non-denaturing gel, 1 hour at 37° C.; set-up: species or system Rhodococcus sp. MB 1; settings: read-out: 50% stabilization concentration
T4 construct: 6xHis (C); made in house; host or cells: E. coli BL-21 Gold (DE3), pET-22b(+)
T4 sequence (Q9L9D7 1-574): T1 sequence (Q9L9D7 1-574)
Text: To further study CocE stabilization with small molecules, other inhibitors of the CocE cleavage reaction were considered.

O[C@@H](CS)[C@@H](O)CS [DTT]
Ki (CocE [1]; cocaine hydrolysis, mixed competitive and non-competitive): ~380 µM | IC50 (CocE [1]; wt-CocE): ~390 µM | effect on decay / τinact of wt-CocE (CocE [2]): shortens; also recorded: accelerate the decay

OB(O)c1ccccc1 [Phenylboronic acid, phenylboronic acid]
melting temperature higher than the T172R mutant (WT CocE; WT CocE with compound): more than 30 degrees | melting temperature of WT CocE in presence of compound (WT CocE; excess benzoic acid, 5× molarity phenylboronic acid, 6031818): 73 °C | additional melting conferred to L169K (CocE mutant L169K): 20 °C | melting temperature of L169K in presence of compound (CocE mutant L169K): ~85 °C | EC50 (CocE WT): ~200 nM
